# Measured values published in patent US20250134869A1, “Pyrrolo[2,3-d]pyrimidinyl, Pyrrolo[2,3-b]pyrazinyl and Pyrrolo[2,3-d]pyridinyl Acryla-mides” (Pfizer Inc, priority 2021, published 2025).
# pIC50: −log10 of the molar value. Like-named read-outs stand apart in the source and are kept apart here.
# Target: JAK3 enzyme (Homo sapiens (Human), UniProt P52333)
# Test: JAK Caliper Enzyme Assay at 4 μM or 1 mM ATP
# Format: biochemical
# [1] = read-out: JAK3 (4 μM ATP) IC50, 4 μM ATP
# [2] = read-out: JAK3 (1 mM ATP) IC50, 1 mM ATP
# Chain of JAK3 enzyme (P52333 whole entry, species assumed): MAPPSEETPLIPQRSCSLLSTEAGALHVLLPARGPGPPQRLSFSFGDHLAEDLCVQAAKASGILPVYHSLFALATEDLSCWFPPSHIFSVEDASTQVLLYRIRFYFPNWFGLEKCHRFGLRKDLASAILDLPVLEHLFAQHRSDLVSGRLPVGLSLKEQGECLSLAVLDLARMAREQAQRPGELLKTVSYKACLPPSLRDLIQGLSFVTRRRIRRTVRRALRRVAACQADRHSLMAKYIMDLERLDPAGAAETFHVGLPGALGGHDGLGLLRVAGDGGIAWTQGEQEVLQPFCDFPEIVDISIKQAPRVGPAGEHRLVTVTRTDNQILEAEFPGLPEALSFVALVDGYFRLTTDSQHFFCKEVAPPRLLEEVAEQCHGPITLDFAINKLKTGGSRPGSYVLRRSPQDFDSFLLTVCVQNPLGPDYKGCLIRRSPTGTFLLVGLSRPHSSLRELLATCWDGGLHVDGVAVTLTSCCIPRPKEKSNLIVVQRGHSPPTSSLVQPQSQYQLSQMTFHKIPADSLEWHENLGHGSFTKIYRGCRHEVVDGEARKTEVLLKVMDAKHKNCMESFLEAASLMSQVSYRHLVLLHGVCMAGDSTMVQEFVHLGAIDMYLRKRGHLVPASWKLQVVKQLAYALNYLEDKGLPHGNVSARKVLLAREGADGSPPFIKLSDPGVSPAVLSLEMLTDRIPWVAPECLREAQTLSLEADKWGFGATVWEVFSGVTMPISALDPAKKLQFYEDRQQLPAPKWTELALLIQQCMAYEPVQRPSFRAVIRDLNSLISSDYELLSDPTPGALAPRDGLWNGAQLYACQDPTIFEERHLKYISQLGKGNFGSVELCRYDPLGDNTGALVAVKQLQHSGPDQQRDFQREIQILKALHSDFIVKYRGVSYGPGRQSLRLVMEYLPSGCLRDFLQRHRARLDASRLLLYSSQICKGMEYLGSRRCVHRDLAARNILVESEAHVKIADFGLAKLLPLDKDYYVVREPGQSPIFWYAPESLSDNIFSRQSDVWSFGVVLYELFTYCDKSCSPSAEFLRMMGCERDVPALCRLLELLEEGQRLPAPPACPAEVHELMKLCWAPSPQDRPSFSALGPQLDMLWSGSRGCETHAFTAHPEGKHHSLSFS
SMILES,pIC50 [1],pIC50 [2]
"C=CC(=O)N1CCC(Nc2cnc3[nH]cc(-c4ccnc(F)c4)c3n2)CC1 [Example 211, 1-(4-{[7-(2-fluoropyridin-4-yl)-5H-pyrrolo[2,3-b]pyrazin-2-yl]amino}piperidin-1-yl)prop-2-en-1-one]",9.70,7.47
"C=CC(=O)N1CCC(Nc2cnc3[nH]cc(-c4cncc(F)c4)c3n2)CC1 [Example 212, 1-(4-{[7-(5-fluoropyridin-3-yl)-5H-pyrrolo[2,3-b]pyrazin-2-yl]amino}piperidin-1-yl)prop-2-en-1-one]",9.52,7.80
"C=CC(=O)N1CCC(Oc2cnc3[nH]cc(-c4ccc(C)nc4)c3n2)CC1 [Example 214, 1-(4-{[7-(6-methylpyridin-3-yl)-5H-pyrrolo[2,3-b]pyrazin-2-yl]oxy}piperidin-1-yl)prop-2-en-1-one]",8.64,6.51
"C=CC(=O)N1CCC(Oc2cnc3[nH]cc(-c4cncnc4)c3n2)CC1 [Example 215, 1-(4-{[7-(pyrimidin-5-yl)-5H-pyrrolo[2,3-b]pyrazin-2-yl]oxy}piperidin-1-yl)prop-2-en-1-one]",8.54,6.41
"C=CC(=O)N1CCC(Oc2cnc3[nH]cc(-c4ccc(C#N)nc4)c3n2)CC1 [Example 216, 5-{2-[(1-acryloylpiperidin-4-yl)oxy]-5H-pyrrolo[2,3-b]pyrazin-7-yl}pyridine-2-carbonitrile]",7.90,5.99
"C=CC(=O)N1CCC(Oc2cnc3[nH]cc(-c4cnc(OC)nc4)c3n2)CC1 [Example 219, 1-(4-{[7-(2-methoxypyrimidin-5-yl)-5H-pyrrolo[2,3-b]pyrazin-2-yl]oxy}piperidin-1-yl)prop-2-en-1-one]",8.77,6.81
"C=CC(=O)N1CCC(Oc2cnc3[nH]cc(-c4ccnc(F)c4)c3n2)CC1 [Example 222, 1-(4-{[7-(2-fluoropyridin-4-yl)-5H-pyrrolo[2,3-b]pyrazin-2-yl]oxy}piperidin-1-yl)prop-2-en-1-one]",8.96,6.90
"C=CC(=O)N1CCC(Oc2cnc3[nH]cc(-c4c(C)noc4C)c3n2)CC1 [Example 224, 1-(4-{[7-(3,5-dimethyl-1,2-oxazol-4-yl)-5H-pyrrolo[2,3-b]pyrazin-2-yl]oxy}piperidin-1-yl)prop-2-en-1-one]",7.75,5.81
"C=CC(=O)N1CCC(Oc2cnc3[nH]cc(-c4cccc(C(=O)NC)c4)c3n2)CC1 [Example 227, 3-{2-[(1-acryloylpiperidin-4-yl)oxy]-5H-pyrrolo[2,3-b]pyrazin-7-yl}-N-methylbenzamide]",9.05,7.14
"C=CC(=O)N1CCC(Oc2cnc3[nH]cc(-c4ccc(S(C)(=O)=O)cc4)c3n2)CC1 [Example 229, 1-[4-({7-[4-(methylsulfonyl)phenyl]-5H-pyrrolo[2,3-b]pyrazin-2-yl}oxy)piperidin-1-yl]prop-2-en-1-one]",8.15,6.13
"C=CC(=O)N1CCC(Nc2cnc3[nH]cc(C(=O)NCCCC(F)(F)F)c3n2)CC1 [Example 240, 2-[(1-acryloylpiperidin-4-yl)amino]-N-(4,4,4-trifluorobutyl)-5H-pyrrolo[2,3-b]pyrazine-7-carboxamide]",10.00,8.04
"C=CC(=O)N1CCC(Nc2cnc3[nH]cc(C(=O)NC[C@H](C)CC(F)(F)F)c3n2)CC1 [Example 241, 2-[(1-acryloylpiperidin-4-yl)amino]-N-[(2R)-4,4,4-trifluoro-2-methylbutyl]-5H-pyrrolo[2,3-b]pyrazine-7-carboxamide]",9.70,8.14
"C=CC(=O)N1CCC(Nc2cnc3[nH]cc(C(=O)N[C@H](C(C)C)[C@@H](O)C(F)(F)F)c3n2)CC1 [Example 248, 2-[(1-acryloylpiperidin-4-yl)amino]-N-[(2R,3R)-1,1,1-trifluoro-2-hydroxy-4-methylpentan-3-yl]-5H-pyrrolo[2,3-b]pyrazine-7-carboxamide]",9.40,7.40
"C=CC(=O)N1CCC(Nc2cnc3[nH]cc(C(=O)NCC4(O)CCCC(F)(F)C4)c3n2)CC1 (stereo not shown) [Example 249, 2-[(1-acryloylpiperidin-4-yl)amino]-N-[(3,3-difluoro-1-hydroxycyclohexyl)methyl]-5H-pyrrolo[2,3-b]pyrazine-7-carboxamide]",9.22,7.33
"C=CC(=O)N1CCC(Nc2cnc3[nH]cc(C(=O)N[C@@H](C(C)C)[C@H](O)C(F)(F)F)c3n2)CC1 [Example 252, 2-[(1-acryloylpiperidin-4-yl)amino]-N-[(2S,3S)-1,1,1-trifluoro-2-hydroxy-4-methylpentan-3-yl]-5H-pyrrolo[2,3-b]pyrazine-7-carboxamide]",9.30,7.43
"C=CC(=O)N1CCC(Nc2cnc3[nH]cc(C(=O)NCC4(O)CCC(F)(F)CC4)c3n2)CC1 [Example 252b, 2-[(1-acryloylpiperidin-4-yl)amino]-N-[(4,4-difluoro-1-hydroxycyclohexyl)methyl]-5H-pyrrolo[2,3-b]pyrazine-7-carboxamide]",9.30,7.39
"C=CC(=O)N1CCC(Nc2cnc3[nH]cc(C(=O)NCC(C)CC(F)(F)F)c3n2)CC1 (stereo not shown) [Example 253, 2-[(1-acryloylpiperidin-4-yl)amino]-N-(4,4,4-trifluoro-2-methylbutyl)-5H-pyrrolo[2,3-b]pyrazine-7-carboxamide]",9.70,8.16

# Continued, values first:
pIC50 [1],pIC50 [2],SMILES
9.22,7.28,"C=CC(=O)N1CCC(Nc2cnc3[nH]cc(C(=O)NCC4(O)CCC4)c3n2)CC1 [Example 231, 2-[(1-acryloylpiperidin-4-yl)amino]-N-[(1-hydroxycyclobutyl)methyl]-5H-pyrrolo[2,3-b]pyrazine-7-carboxamide]"
9.52,7.60,"C=CC(=O)N1CCC(Nc2cnc3[nH]cc(C(=O)NCC4(O)CCCC4)c3n2)CC1 [Example 232, 2-[(1-acryloylpiperidin-4-yl)amino]-N-[(1-hydroxycyclopentyl)methyl]-5H-pyrrolo[2,3-b]pyrazine-7-carboxamide]"
> 9.52,8.31,"C=CC(=O)N1CCC(Nc2cnc3[nH]cc(C(=O)NC4CCCC4(F)F)c3n2)CC1 (stereo not shown) [Example 234, 2-[(1-acryloylpiperidin-4-yl)amino]-N-(2,2-difluorocyclopentyl)-5H-pyrrolo[2,3-b]pyrazine-7-carboxamide]"
10.00,8.08,"C=CC(=O)N1CCC(Nc2cnc3[nH]cc(C(=O)NC4CCCC(F)(F)C4)c3n2)CC1 (stereo not shown) [Example 236, 2-[(1-acryloylpiperidin-4-yl)amino]-N-(3,3-difluorocyclohexyl)-5H-pyrrolo[2,3-b]pyrazine-7-carboxamide]"
9.70,8.11,"C=CC(=O)N1CCC(Nc2cnc3[nH]cc(C(=O)N[C@@H]4CCC[C@H]4F)c3n2)CC1 [Example 237, 2-[(1-acryloylpiperidin-4-yl)amino]-N-[(1R,2R)-2-fluorocyclopentyl]-5H-pyrrolo[2,3-b]pyrazine-7-carboxamide]"
9.70,8.03,"C=CC(=O)N1CCC(Nc2cnc3[nH]cc(C(=O)NCC4CC(F)(F)C4)c3n2)CC1 [Example 238, 2-[(1-acryloylpiperidin-4-yl)amino]-N-[(3,3-difluorocyclobutyl)methyl]-5H-pyrrolo[2,3-b]pyrazine-7-carboxamide]"
10.00,7.97,"C=CC(=O)N1CCC(Nc2cnc3[nH]cc(C(=O)NCCCC#N)c3n2)CC1 [Example 242, 2-[(1-acryloylpiperidin-4-yl)amino]-N-(3-cyanopropyl)-5H-pyrrolo[2,3-b]pyrazine-7-carboxamide]"
> 10.00,8.05,"C=CC(=O)N1CCC(Nc2cnc3[nH]cc(C(=O)NC4CC(F)C4)c3n2)CC1 (stereo not shown) [Example 243, 2-[(1-acryloylpiperidin-4-yl)amino]-N-(3-fluorocyclobutyl)-5H-pyrrolo[2,3-b]pyrazine-7-carboxamide]"
9.70,8.14,"C=CC(=O)N1CCC(Nc2cnc3[nH]cc(C(=O)N[C@H]4CC[C@@H](F)C4)c3n2)CC1 [Example 244, 2-[(1-acryloylpiperidin-4-yl)amino]-N-[(1S,3R)-3-fluorocyclopentyl]-5H-pyrrolo[2,3-b]pyrazine-7-carboxamide]"
9.70,7.75,"C=CC(=O)N1CCC(Nc2cnc3[nH]cc(C(=O)NC4CC(F)(F)C4)c3n2)CC1 [Example 245, 2-[(1-acryloylpiperidin-4-yl)amino]-N-(3,3-difluorocyclobutyl)-5H-pyrrolo[2,3-b]pyrazine-7-carboxamide]"
9.52,8.19,"C=CC(=O)N1CCC(Nc2cnc3[nH]cc(C(=O)NCCC(F)(F)F)c3n2)CC1 [Example 246, 2-[(1-acryloylpiperidin-4-yl)amino]-N-(3,3,3-trifluoropropyl)-5H-pyrrolo[2,3-b]pyrazine-7-carboxamide]"
9.70,8.09,"C=CC(=O)N1CCC(Nc2cnc3[nH]cc(C(=O)N[C@H]4CC[C@H](F)C4)c3n2)CC1 [Example 247, 2-[(1-acryloylpiperidin-4-yl)amino]-N-[(1S,3S)-3-fluorocyclopentyl]-5H-pyrrolo[2,3-b]pyrazine-7-carboxamide]"
9.70,8.09,"C=CC(=O)N1CCC(Nc2cnc3[nH]cc(C(=O)N[C@@H]4CCC[C@@H]4F)c3n2)CC1 [Example 251, 2-[(1-acryloylpiperidin-4-yl)amino]-N-[(1R,2S)-2-fluorocyclopentyl]-5H-pyrrolo[2,3-b]pyrazine-7-carboxamide]"
9.52,8.01,"C=CC(=O)N1CCC(Nc2cnc3[nH]cc(C(=O)N[C@@H]4CC[C@H](F)C4)c3n2)CC1 [Example 255, 2-[(1-acryloylpiperidin-4-yl)amino]-N-[(1R,3S)-3-fluorocyclopentyl]-5H-pyrrolo[2,3-b]pyrazine-7-carboxamide]"
9.70,8.10,"C=CC(=O)N1CCC(Nc2cnc3[nH]cc(C(=O)NC4CCCCC4(F)F)c3n2)CC1 (stereo not shown) [Example 256, 2-[(1-acryloylpiperidin-4-yl)amino]-N-(2,2-difluorocyclohexyl)-5H-pyrrolo[2,3-b]pyrazine-7-carboxamide]"
